3 molecules from publication PMC2775811 (The Journal of neuroscience : the official journal of the …, 2009) can be followed below.

One experiment deals with Hsp70 (Homo sapiens, UniProt P0DMV8). Nature of the experiment: malachite green ATPase assay, 8-point dose dependence. In kind it is biochemical.
A further experiment deals with Hsc70 (Homo sapiens, UniProt P11142). Put plainly: […]-1H HSQC-TROSY NMR titration, […]-labelled apo-Hsc70. It counts as binding.

`CNc1ccc2nc3ccc(N)cc3[s+]c2c1` [AC, azure C] showed a concentration for half-maximal inhibition (IC50) at Hsp70 of 11 µM. On to `CN(C)c1ccc2nc3ccc(=[N+](C)C)cc-3sc2c1` [MB, methylene blue], for which the Kd at Hsc70 was about 1 µM. Moreover, inhibition on Hsp70 was half-maximal at 83 µM (IC50). `O=c1c(O)c(-c2cc(O)c(O)c(O)c2)oc2cc(O)cc(O)c12` [MY, myricetin] returned an IC50 on Hsp70 of 12 µM.
